{
  "source": "patent US20220071932A1",
  "about": "“Compositions and Methods Against Stress-Induced Affective Disorders and Their Associated Symptoms” (The Trustees of Columbia University in the City of New York, priority 2019, published 2022)",
  "key": {"[1]": {"tested_on": "129S6/SvEv mice", "test": "Anxiety-like behavior, summary of anxiety tests (OF, MB, EPM)", "assay_type": "in vivo", "procedure": "Testing was performed as previously described (47). Briefly, the maze is a plus-cross-shaped apparatus consisting of four arms, two open and two enclosed by walls, linked by a central platform at a height of 50 cm from the floor. Mice were individually placed in the center of the maze facing an open arm and were allowed to explore the maze for 5 min. The time spent in and the number of entries into the open arms was used as an anxiety index. Videos were scored using ANY-maze behavior tracking software (Stoelting, Wood Dale, Ill.).\nThe OF assay was administered as previously described (47). Briefly, motor activity was quantified in 4 Plexiglas open field boxes 43×43 cm^2 (MED Associates, Georgia, Vt.). Two sets of 16 pulse-modulated infrared photobeams on opposite walls 2.5-cm apart recorded x-y ambulatory movements. Activity chambers were computer interfaced for data sampling at 100-ms resolution. The computer defined grid lines that dividing center and surround regions, with the center square consisting of four lines 11 cm from the wall.\nThe MB assay was conducted in a clean cage (10.5 in×5.5 in) containing soft pliable Beta Chip bedding (Northeastern Products Corp, Warrensburg, N.Y.). The cage contained 16 marbles set up in 4 rows of 4 across. Mice were given 30 minutes to explore and bury. At the end of the assay, the percentage of marbles buried was calculated."}, "[2]": {"tested_on": "NR2A subunit of the NMDAR", "test": "Western blotting of hippocampus after fear memory recall", "assay_type": "in vivo, mice", "conditions": "one week prior to CFC, (R,S)-ketamine 30 mg/kg, FENM 20 mg/kg, vs saline", "procedure": "Samples from mouse hippocampus and prefrontal cortex were dissected, snap frozen, and stored at −80° C. Brain tissue was homogenized in RIPA buffer with protease inhibitor (Thermo Fisher Scientific, Waltham, Mass.; Roche, Basel, Switzerland) using a motorized pestle mixer (Argos Technologies, Vernon Hills, Ill.) and spun at 1000 g×14 minutes to remove cell debris. Protein concentration was determined using a Bradford protein assay (Bio-Rad, Hercules, Calif.). 4× Laemmli buffer and β-mercaptoethanol (Bio-Rad, Hercules, Calif.) was added to the samples, which were then boiled at 90° C. for five minutes. 50 μg of each sample was separated by SDS/PAGE, and proteins were transferred onto PVDF membrane (GE Healthcare Life Sciences, Marlborough, Mass.). Membranes were then blocked in 1×TBS with 0.1% Tween-20 and 5% BSA for 1 hr at RT. Incubation with primary antibodies was performed at 4° C. overnight (rabbit anti-β-tubulin, 1:10000, Abc am, Cambridge, UK, ab6046; rabbit anti-NR2A, 1:1000, Alomone Labs, Jerusalem, Israel, AGC-002; rabbit anti-NR2B, 1:600, Alomone Labs, Jerusalem, Israel, AGC-003; mouse anti-GluR1, 1:1000, Millipore Sigma, Burlington, Mass., MAB2263) in 1×TBS with 0.1% Tween-20 and 5% BSA. […]"}, "[3]": {"tested_on": "129S6/SvEv mice", "test": "Contextual fear conditioning (CFC), 3-shock; freezing", "assay_type": "in vivo", "conditions": "for p, Fisher's LSD Saline vs. drug, CFC Re-exposure Freezing Min 1 (%) / p, Fisher's LSD Saline vs. drug, CFC Re-exposure Freezing Min 2 (%) / p, Fisher's LSD Saline vs. drug, CFC Re-exposure Freezing Min 3 (%) / p, Fisher's LSD Saline vs. drug, CFC Re-exposure Freezing Min 4 (%) / p, Fisher's LSD Saline vs. drug, CFC Re-exposure Freezing Min 5 (%) / p, Fisher's LSD Saline vs. drug, CFC Re-exposure Freezing (%): drug 1 week before stress; for p, Fisher's PLSD Saline vs. drug, CFC Re-exposure Freezing Min 1 (%) / p, Fisher's PLSD Saline vs. drug, CFC Re-exposure Freezing Min 2 (%) / p, Fisher's PLSD Saline vs. drug, CFC Re-exposure Freezing Min 3 (%) / p, Fisher's PLSD Saline vs. drug, CFC Re-exposure Freezing Min 4 (%) / p, Fisher's PLSD Saline vs. drug, CFC Re-exposure Freezing Min 5 (%) / p, Fisher's PLSD Saline vs. drug, CFC Re-exposure Freezing (%): drug 5 minutes after stress, FIG. 2C", "procedure": "A 3-shock CFC paradigm was administered as previously described (45, 46). CFC was conducted in chambers obtained from Med Associates (St. Albans, Vt.), with internal dimensions of approximately 20 cm wide×16 cm deep×20.5 cm high. The chambers had metal walls on each side, clear plastic front and back walls and ceilings, and stainless-steel bars on the floor. A house light (CM1820 bulb, 28v, 100 mA) mounted directly above the chamber provided illumination. Each chamber was located inside a larger, insulated, plastic cabinet that provided protection from outside light and noise. Each cabinet contained a ventilation fan that was operated during the sessions. A paper towel dabbed with lemon solution was placed underneath the chamber floor. Mice were held outside the experimental room in their home cages prior to testing and transported to the conditioning apparatus individually in standard mouse cages Chambers were cleaned with 70% EtOH between each set of mice. Mice were placed into the conditioning chamber and received shocks at 180 s, 240 s, and 300 s (2 s duration, 0.75 mA). Fifteen seconds after the last shock, mice were removed from the chamber. Overall, the training session lasted 317 s. […] All sessions were scored for freezing using FreezeFrame4."}, "[4]": {"conditions": "5 min prior to CFC, (R,S)-ketamine 30 mg/kg, FENM 20 mg/kg, vs saline"}},
  "data": [
    {"smiles": "NC12CC3CC(C1)CC(CCF)(C3)C2", "note": "[FENM, 1-amino-3-fluoroethyl-adamantane]", "values": [
      {"measurement": "behavior in all anxiety tests, with the exception of the time spent in the center of the OF", "setting": "[1]; 5 min after context re-exposure 1, (R,S)-ketamine 30 mg/kg, FENM 20 mg/kg, vs saline", "value": "did not alter behavior"},
      {"measurement": "behavior in all anxiety tests", "setting": "[1]; 5 minutes prior to context re-exposure 1 (24 h after CFC), (R,S)-ketamine 30 mg/kg, FENM 20 mg/kg, vs saline", "value": "did not alter behavior"},
      {"measurement": "Behavior: Anxiety-like", "setting": "[1]; Antidepressant (5 min after stress), dose 20 mg/kg", "value": "↓"},
      {"measurement": "Behavior: Anxiety-like", "setting": "[1]; Antidepressant (5 min after stress), dose 30 mg/kg", "value": "↓"},
      {"measurement": "Behavior: Anxiety-like", "setting": "[1]; Extinction (5 min after re-exposure 1), dose 20 mg/kg", "value": "↓"},
      {"measurement": "NR2A expression in the hippocampus", "setting": "[2]", "value": "comparable"},
      {"measurement": "p, Fisher's LSD Saline vs. drug, CFC Re-exposure Freezing Min 1 (%)", "setting": "[3]; 10 mg/kg, FIG. 1C", "value": 0.4040},
      {"measurement": "p, Fisher's LSD Saline vs. drug, CFC Re-exposure Freezing Min 2 (%)", "setting": "[3]; 10 mg/kg, FIG. 1C", "value": 0.0961},
      {"measurement": "p, Fisher's LSD Saline vs. drug, CFC Re-exposure Freezing Min 3 (%)", "setting": "[3]; 10 mg/kg, FIG. 1C", "value": 0.5544},
      {"measurement": "p, Fisher's LSD Saline vs. drug, CFC Re-exposure Freezing Min 4 (%)", "setting": "[3]; 10 mg/kg, FIG. 1C", "value": 0.0419},
      {"measurement": "p, Fisher's LSD Saline vs. drug, CFC Re-exposure Freezing Min 5 (%)", "setting": "[3]; 10 mg/kg, FIG. 1C", "value": 0.3855},
      {"measurement": "p, Fisher's LSD Saline vs. drug, CFC Re-exposure Freezing (%)", "setting": "[3]; 10 mg/kg, after ANOVA, FIG. 1D", "value": 0.1313},
      {"measurement": "p, Fisher's LSD Saline vs. drug, CFC Re-exposure Freezing (%)", "setting": "[3]; 10 mg/kg, after RMANOVA, FIG. 1C", "value": 0.1313},
      {"measurement": "p, Fisher's PLSD Saline vs. drug, CFC Re-exposure Freezing Min 1 (%)", "setting": "[3]; 10 mg/kg", "value": 0.1019},
      {"measurement": "p, Fisher's PLSD Saline vs. drug, CFC Re-exposure Freezing Min 2 (%)", "setting": "[3]; 10 mg/kg", "value": 0.0359},
      {"measurement": "p, Fisher's PLSD Saline vs. drug, CFC Re-exposure Freezing Min 3 (%)", "setting": "[3]; 10 mg/kg", "value": 0.0300},
      {"measurement": "p, Fisher's PLSD Saline vs. drug, CFC Re-exposure Freezing Min 4 (%)", "setting": "[3]; 10 mg/kg", "value": 0.1916},
      {"measurement": "p, Fisher's PLSD Saline vs. drug, CFC Re-exposure Freezing Min 5 (%)", "setting": "[3]; 10 mg/kg", "value": 0.6909},
      {"measurement": "p, Fisher's PLSD Saline vs. drug, CFC Re-exposure Freezing (%)", "setting": "[3]; 10 mg/kg, after RMANOVA", "value": 0.0570},
      {"measurement": "p, Fisher's LSD Saline vs. drug, CFC Re-exposure Freezing Min 1 (%)", "setting": "[3]; 20 mg/kg, FIG. 1C", "value": 0.2929},
      {"measurement": "p, Fisher's LSD Saline vs. drug, CFC Re-exposure Freezing Min 2 (%)", "setting": "[3]; 20 mg/kg, FIG. 1C", "value": 0.0225},
      {"measurement": "p, Fisher's LSD Saline vs. drug, CFC Re-exposure Freezing Min 3 (%)", "setting": "[3]; 20 mg/kg, FIG. 1C", "value": 0.0834},
      {"measurement": "p, Fisher's LSD Saline vs. drug, CFC Re-exposure Freezing Min 4 (%)", "setting": "[3]; 20 mg/kg, FIG. 1C", "value": 0.0743},
      {"measurement": "p, Fisher's LSD Saline vs. drug, CFC Re-exposure Freezing Min 5 (%)", "setting": "[3]; 20 mg/kg, FIG. 1C", "value": 0.0027},
      {"measurement": "p, Fisher's LSD Saline vs. drug, CFC Re-exposure Freezing (%)", "setting": "[3]; 20 mg/kg, after ANOVA, FIG. 1D", "value": 0.015},
      {"measurement": "p, Fisher's LSD Saline vs. drug, CFC Re-exposure Freezing (%)", "setting": "[3]; 20 mg/kg, after RMANOVA, FIG. 1C", "value": 0.0150},
      {"measurement": "p, Fisher's LSD Saline vs. drug, CFC Re-exposure Freezing Min 1 (%)", "setting": "[3]; 30 mg/kg, FIG. 1C", "value": 0.0328},
      {"measurement": "p, Fisher's LSD Saline vs. drug, CFC Re-exposure Freezing Min 2 (%)", "setting": "[3]; 30 mg/kg, FIG. 1C", "value": 0.0080},
      {"measurement": "p, Fisher's LSD Saline vs. drug, CFC Re-exposure Freezing Min 3 (%)", "setting": "[3]; 30 mg/kg, FIG. 1C", "value": 0.0038},
      {"measurement": "p, Fisher's LSD Saline vs. drug, CFC Re-exposure Freezing Min 4 (%)", "setting": "[3]; 30 mg/kg, FIG. 1C", "value": 0.0005},
      {"measurement": "p, Fisher's LSD Saline vs. drug, CFC Re-exposure Freezing Min 5 (%)", "setting": "[3]; 30 mg/kg, FIG. 1C", "value": 0.0807},
      {"measurement": "p, Fisher's LSD Saline vs. drug, CFC Re-exposure Freezing (%)", "setting": "[3]; 30 mg/kg, after ANOVA, FIG. 1D", "value": 0.0018},
      {"measurement": "p, Fisher's LSD Saline vs. drug, CFC Re-exposure Freezing (%)", "setting": "[3]; 30 mg/kg, after RMANOVA, FIG. 1C", "value": 0.0018},
      {"measurement": "p, Fisher's PLSD Saline vs. drug, CFC Re-exposure Freezing Min 1 (%)", "setting": "[3]; 30 mg/kg", "value": 0.8647},
      {"measurement": "p, Fisher's PLSD Saline vs. drug, CFC Re-exposure Freezing Min 2 (%)", "setting": "[3]; 30 mg/kg", "value": 0.4119},
      {"measurement": "p, Fisher's PLSD Saline vs. drug, CFC Re-exposure Freezing Min 3 (%)", "setting": "[3]; 30 mg/kg", "value": 0.3540},
      {"measurement": "p, Fisher's PLSD Saline vs. drug, CFC Re-exposure Freezing Min 4 (%)", "setting": "[3]; 30 mg/kg", "value": 0.0503},
      {"measurement": "p, Fisher's PLSD Saline vs. drug, CFC Re-exposure Freezing Min 5 (%)", "setting": "[3]; 30 mg/kg", "value": 0.3078},
      {"measurement": "p, Fisher's PLSD Saline vs. drug, CFC Re-exposure Freezing (%)", "setting": "[3]; 30 mg/kg, after RMANOVA", "value": 0.2420},
      {"measurement": "fear expression during CFC re-exposure", "setting": "[3]; 1 week prior to CFC, (R,S)-ketamine 30 mg/kg, FENM 20 and 30 mg/kg, vs saline", "value": "decreased fear expression"},
      {"measurement": "fear expression during re-exposure 2", "setting": "[3]; 5 min after context re-exposure 1 (24 h before re-exposure 2), (R,S)-ketamine 30 mg/kg, FENM 20 mg/kg, vs saline", "value": "significantly decreased fear expression"},
      {"measurement": "fear expression during CFC re-exposure 1", "setting": "[3]; [4]", "value": "but not FENM significantly decreased"},
      {"measurement": "fear expression during CFC re-exposure 2", "setting": "[3]; [4]", "value": "significantly increased fear expression"},
      {"measurement": "freezing during CFC training", "setting": "[3]; [4]", "value": "but not FENM, increased freezing"},
      {"measurement": "CFC Training, Average Freezing, p (Fisher's LSD)", "setting": "[3]; (R,S)-ketamine (30 mg/kg) vs. FENM (20 mg/kg), FIG. 8C", "value": 0.0029},
      {"measurement": "CFC Re-exposure 1, Freezing Min 1 (%), p (Fisher's LSD)", "setting": "[3]; (R,S)-ketamine (30 mg/kg) vs. FENM (20 mg/kg), FIG. 8D", "value": "<0.0001"}
    ]}
  ]
}
